System: cytotoxicity counter-screen, cell viability, 2% serum
Test: viability loss in CXCR4-tropic fusion assay cells – cell-based, 2% serum, set 2, cytotoxicity control for HIV-1 antiviral lead project, dose response (AID 504574)

| SMILES | CC50 |
| --- | --- |
| Cc1c2c(=O)n(-c3nc4ccccc4s3)nc-2cc(O)n1CCc1ccc(O)cc1 | 3.34 µM |
| Cc1c2c(=O)n(-c3nc4ccccc4s3)nc-2cc(O)n1Cc1cccs1 | 5.51 µM |
| Cc1c2c(=O)n(-c3nc4ccccc4s3)nc-2cc(O)n1Cc1ccc(F)cc1 | 4.88 µM |
| Cc1c2c(=O)n(-c3nc4ccccc4s3)nc-2cc(O)n1Cc1cccnc1 | 7.86 µM |
| COc1ccc(Cn2c(O)cc3nn(-c4nc5ccccc5s4)c(=O)c-3c2C)cc1 | 5.52 µM |
| COc1ccccc1Cn1c(O)cc2nn(-c3nc4ccccc4s3)c(=O)c-2c1C | 15.1 µM |
| COc1ccc(CCn2c(O)cc3nn(-c4nc5ccccc5s4)c(=O)c-3c2C)cc1 | 23.4 µM |
| Cc1c2c(=O)n(-c3nc4ccccc4s3)nc-2cc(O)n1CCC(C)C | 18.6 µM |
| Cc1c2c(=O)n(-c3nc4ccccc4s3)nc-2cc(O)n1Cc1ccncc1 | 9.26 µM |
| Cc1c2c(=O)n(-c3nc4ccccc4s3)nc-2cc(O)n1Cc1ccccc1Cl | 6.06 µM |
| Cc1c2c(=O)n(-c3nc4ccccc4s3)nc-2cc(O)n1C1CC1 | 3.82 µM |
| Cc1c2c(=O)n(-c3nc4ccccc4s3)nc-2cc(O)n1CCc1cccs1 | 16 µM |
| Cc1c2c(=O)n(-c3nc4ccccc4s3)nc-2cc(O)n1Cc1ccccc1 | 8.94 µM |

From PubChem BioAssay AID504574 (Southern Research Specialized Biocontainment Screening …, 2011)
